Target: T1, human PAH with the R408W mutation (Homo sapiens, UniProt P00439, R408W)
T1 construct: expressed in transfected cells
T1 sequence (P00439 1-452 R408W): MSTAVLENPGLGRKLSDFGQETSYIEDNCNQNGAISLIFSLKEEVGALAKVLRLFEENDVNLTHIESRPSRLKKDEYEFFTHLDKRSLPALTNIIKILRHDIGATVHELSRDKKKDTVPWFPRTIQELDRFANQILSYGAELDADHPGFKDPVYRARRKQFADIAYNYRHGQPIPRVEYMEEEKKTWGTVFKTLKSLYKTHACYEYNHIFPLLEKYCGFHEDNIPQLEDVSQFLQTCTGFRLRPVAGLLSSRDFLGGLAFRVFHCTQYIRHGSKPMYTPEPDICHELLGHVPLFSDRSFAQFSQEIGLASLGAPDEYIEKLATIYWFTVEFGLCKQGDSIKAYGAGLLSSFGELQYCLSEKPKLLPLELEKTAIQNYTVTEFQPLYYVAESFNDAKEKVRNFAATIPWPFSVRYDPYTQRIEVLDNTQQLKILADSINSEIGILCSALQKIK
Assay: Cell Based Phenylalanine Flux Assay;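 also: Ten-point dose curve from 2-fold serial dilutions, run in duplicate at 0.5% DMSO final, tracer step used 20 µM sepiapterin and 800 µM labeled phenylalanine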
Details: A375 cells expressing human R408W PAH; 24 hrs with compound, then sepiapterin and 13C9,15N-Phenylalanine for 4 hours; 13C-Tyrosine by LC-MS; average where tested multiple times; read-out: AC50
Description: Compounds were resuspended in DMSO, and 2-fold serial dilutions were performed to generate a 10-point dose curve. Compounds were added to plated cells in a total volume of 100 μl, and a final DMSO concentration of 0.5%. Each compound was tested in duplicate. Following compound addition, cells were placed in a 5% CO2, 37° C. tissue culture incubator for 24 hrs. […] 20 μM sepiapterin and 800 μM 13C9,15N-Phenylalanine were added. After 4 hours, cell media was removed. An aliquot of 10 μl of cell media was combined with 200 μl of extraction buffer (80% acetonitrile/20% H2O) for each well. Determination of ^13C-Tyrosine concentration was assessed by liquid chromatography mass spectrometry.
Where a compound was tested multiple times, the average value of the tests is reported.

AC50 [µM]	SMILES
> 5	CC1(c2nnc(N3CCc4[nH]cnc4[C@@H]3c3cc4c(Cl)cccn4n3)o2)CC1 [Example 2258, (R)-2-(4-(4-chloropyrazolo [1,5-a]pyridin-2-yl)-1,4,6,7-tetrahydro-5H-imidazo [4,5-c]pyridin-5-yl)-5-(1-methylcyclopropyl)-1,3,4-oxadiazole]
0.5 to 1	CC(C)c1cccn2nc([C@@H]3c4nc[nH]c4CCN3c3nnc(-c4cccnc4)o3)cc12 [Example 2261, (S)-2-(4-(4-isopropylpyrazolo [1,5-a]pyridin-2-yl)-1,4,6,7-tetrahydro-5H-imidazo [4,5-c]pyridin-5-yl)-5-(pyridin-3-yl)-1,3,4-oxadiazole]
0.5 to 1	Clc1cccn2nc([C@@H]3c4nc[nH]c4CCN3c3nnc(-c4cccnc4)o3)cc12 [Example 2262, (S)-2-(4-(4-chloropyrazolo [1,5-a]pyridin-2-yl)-1,4,6,7-tetrahydro-5H-imidazo[4,5-c]pyridin-5-yl)-5-(pyridin-3-yl)-1,3,4-oxadiazole]
> 5	Clc1cccn2nc([C@H]3c4nc[nH]c4CCN3c3nnc(-c4cccnc4)o3)cc12 [Example 2263, (R)-2-(4-(4-chloropyrazolo [1,5-a]pyridin-2-yl)-1,4,6,7-tetrahydro-5H-imidazo[4,5-c]pyridin-5-yl)-5-(pyridin-3-yl)-1,3,4-oxadiazole]
0.5 to 1	Cc1cccn2nc([C@@H]3c4nc[nH]c4CCN3c3nnc(-c4cccnc4F)o3)cc12 [Example 2264, (S)-2-(2-fluoropyridin-3-yl)-5-(4-(4-methylpyrazolo[1,5-a]pyridin-2-yl)-1,4,6,7-tetrahydro-5H-imidazo[4,5-c]pyridin-5-yl)-1,3,4-oxadiazole]
> 5	Cc1cccn2nc([C@H]3c4nc[nH]c4CCN3c3nnc(-c4cccnc4F)o3)cc12 [Example 2265, (R)-2-(2-fluoropyridin-3-yl)-5-(4-(4-methylpyrazolo[1,5-a]pyridin-2-yl)-1,4,6,7-tetrahydro-5H-imidazo[4,5-c]pyridin-5-yl)-1,3,4-oxadiazole]
< 0.5	Cc1cccnc1-c1nnc(N2CCc3[nH]cnc3[C@H]2c2cc3c(C(F)F)cccn3n2)o1 [Example 2279, (S)-2-(4-(4-(difluoromethyl)pyrazolo[1,5-a]pyridin-2-yl)-1,4,6,7-tetrahydro-5H-imidazo [4,5-c]pyridin-5-yl)-5-(3-methylpyridin-2-yl)-1,3,4-oxadiazole]
> 5	Cc1cccnc1-c1nnc(N2CCc3[nH]cnc3[C@@H]2c2cc3c(F)cccn3n2)o1 [Example 2281, (R)-2-(4-(4-fluoropyrazolo [1,5-a]pyridin-2-yl)-1,4,6,7-tetrahydro-5H-imidazo [4,5-c]pyridin-5-yl)-5-(3-methylpyridin-2-yl)-1,3,4-oxadiazole]
< 0.5	Cc1cccnc1-c1nnc(N2CCc3[nH]cnc3[C@H]2c2cc3c(Cl)cccn3n2)o1 [Example 2287]
0.5 to 1	Cc1cc(-c2nnc(C(=O)N3CCc4[nH]cnc4[C@H]3c3cc4c(F)cccn4n3)o2)n[nH]1 [Example 2295, (S)-(4-(4-fluoropyrazolo [1,5-a]pyridin-2-yl)-1,4,6,7-tetrahydro-5H-imidazo[4,5-c]pyridin-5-yl)(5-(5-methyl-1H-pyrazol-3-yl)-1,3,4-oxadiazol-2-yl)methanone]
< 0.5	Cc1c[nH]nc1-c1nnc(C(=O)N2CCc3[nH]cnc3[C@H]2c2cc3c(F)cccn3n2)o1 [Example 2296, (S)-(4-(4-fluoropyrazolo [1,5-a]pyridin-2-yl)-1,4,6,7-tetrahydro-5H-imidazo[4,5-c]pyridin-5-yl)(5-(4-methyl-1H-pyrazol-3-yl)-1,3,4-oxadiazol-2-yl)methanone]
> 5	Cc1c[nH]nc1-c1nnc(C(=O)N2CCc3[nH]cnc3[C@@H]2c2cc3c(F)cccn3n2)o1 [Example 2297, (R)-(4-(4-fluoropyrazolo [1,5-a]pyridin-2-yl)-1,4,6,7-tetrahydro-5H-imidazo[4,5-c]pyridin-5-yl)(5-(4-methyl-1H-pyrazol-3-yl)-1,3,4-oxadiazol-2-yl)methanone]
> 5	Cc1cccnc1-c1nnc(N2CCc3[nH]cnc3[C@@H]2c2cc3cccc(Cl)n3n2)o1 [Example 2306, (R)-2-(4-(7-chloropyrazolo [1,5-a]pyridin-2-yl)-1,4,6,7-tetrahydro-5H-imidazo [4,5-c]pyridin-5-yl)-5-(3-methylpyridin-2-yl)-1,3,4-oxadiazole]
< 0.5	Cc1cccnc1-c1nnc(N2CCc3[nH]cnc3[C@H]2c2cc3cccc(Cl)n3n2)o1 [Example 2307, (S)-2-(4-(7-chloropyrazolo [1,5-a]pyridin-2-yl)-1,4,6,7-tetrahydro-5H-imidazo [4,5-c]pyridin-5-yl)-5-(3-methylpyridin-2-yl)-1,3,4-oxadiazole]
< 0.5	CC(C)c1nnc(N2CCc3[nH]cnc3[C@H]2c2cc3c(C(F)F)cccn3n2)o1 [Example 2321, (S)-2-(4-(4-(difluoromethyl)pyrazolo[1,5-a]pyridin-2-yl)-1,4,6,7-tetrahydro-5H-imidazo [4,5-c]pyridin-5-yl)-5-isopropyl-1,3,4-oxadiazole]
> 5	Cc1cccc2cc([C@H]3c4nc[nH]c4CCN3c3nnc(C(C)(F)F)o3)nn12 [Example 2328, (R)-2-(1,1-difluoroethyl)-5-(4-(7-methylpyrazolo[1,5-a]pyridin-2-yl)-1,4,6,7-tetrahydro-5H-imidazo[4,5-c]pyridin-5-yl)-1,3,4-oxadiazole]
0.5 to 1	Cc1ncccc1-c1nnc(N2CCc3[nH]cnc3[C@H]2c2cc3cccc(Cl)n3n2)o1 [Example 2330, (S)-2-(4-(7-chloropyrazolo [1,5-a]pyridin-2-yl)-1,4,6,7-tetrahydro-5H-imidazo [4,5-c]pyridin-5-yl)-5-(2-methylpyridin-3-yl)-1,3,4-oxadiazole]
> 5	CC(C)c1cccn2nc([C@H]3c4nc[nH]c4CCN3c3nnc(-c4cccnc4F)o3)cc12 [Example 2334, (R)-2-(2-fluoropyridin-3-yl)-5-(4-(4-isopropylpyrazolo[1,5-a]pyridin-2-yl)-1,4,6,7-tetrahydro-5H-imidazo[4,5-c]pyridin-5-yl)-1,3,4-oxadiazole]
1 to 5	Cc1cccc(-c2nnc(N3CCc4[nH]cnc4[C@H]3c3cc4ccccn4n3)o2)n1 [Example 2342, (S)-2-(6-methylpyridin-2-yl)-5-(4-(pyrazolo[1,5-a]pyridin-2-yl)-1,4,6,7-tetrahydro-5H-imidazo[4,5-c]pyridin-5-yl)-1,3,4-oxadiazole]
> 5	Cc1cccc(-c2nnc(N3CCc4[nH]cnc4[C@@H]3c3cc4ccccn4n3)o2)n1 [Example 2343, (R)-2-(6-methylpyridin-2-yl)-5-(4-(pyrazolo[1,5-a]pyridin-2-yl)-1,4,6,7-tetrahydro-5H-imidazo[4,5-c]pyridin-5-yl)-1,3,4-oxadiazole]
> 5	Cc1cccc(-c2nnc(N3CCc4[nH]cnc4[C@@H]3c3cc4c(C)cccn4n3)o2)n1 [Example 2344]
> 5	Cc1cccc(-c2nnc(N3CCc4[nH]cnc4[C@@H]3c3cc4c(C(F)F)cccn4n3)o2)n1 [Example 2346, (R)-2-(4-(4-(difluoromethyl)pyrazolo[1,5-a]pyridin-2-yl)-1,4,6,7-tetrahydro-5H-imidazo[4,5-c]pyridin-5-yl)-5-(6-methylpyridin-2-yl)-1,3,4-oxadiazole]
0.5 to 1	Cc1cccnc1-c1nnc(N2CCc3[nH]cnc3[C@H]2c2cc3cccc(C(F)F)n3n2)o1 [Example 2352, (S)-2-(4-(7-(difluoromethyl)pyrazolo[1,5-a]pyridin-2-yl)-1,4,6,7-tetrahydro-5H-imidazo [4,5-c]pyridin-5-yl)-5-(3-methylpyridin-2-yl)-1,3,4-oxadiazole]
< 0.5	Cc1cccn2nc([C@@H]3c4nc[nH]c4CCN3c3nnc(-c4cccc(F)n4)o3)cc12 [Example 2361, (S)-2-(6-fluoropyridin-2-yl)-5-(4-(4-methylpyrazolo[1,5-a]pyridin-2-yl)-1,4,6,7-tetrahydro-5H-imidazo[4,5-c]pyridin-5-yl)-1,3,4-oxadiazole]
1 to 5	O=C(c1nnc(-c2ccc(F)cn2)o1)N1CCc2[nH]cnc2[C@H]1c1cc2ccccn2n1 [Example 2365, (S)-(5-(5-fluoropyridin-2-yl)-1,3,4-oxadiazol-2-yl)(4-(pyrazolo[1,5-a]pyridin-2-yl)-6,7-dihydro-1H-imidazo[4,5-c]pyridin-5(4H)-yl)methanone]

SMILES	AC50 [µM]
FC(F)Oc1cccn2nc([C@@H]3c4nc[nH]c4CCN3c3ccc(C(F)(F)F)cn3)cc12 [Example 2272, (S)-4-(4-(difluoromethoxy)pyrazolo[1,5-a]pyridin-2-yl)-5-(5-(trifluoromethyl)pyridin-2-yl)-4,5,6,7-tetrahydro-1H-imidazo[4,5-c]pyridine]	< 0.5
Cc1cccn2nc([C@H]3c4nc[nH]c4CCN3c3ccccc3)cc12 [Example 2310, (R)-4-(4-methylpyrazolo [1,5-a]pyridin-2-yl)-5-phenyl-4,5,6,7-tetrahydro-1H-imidazo[4,5-c]pyridine]	1 to 5
FC(F)Oc1cccn2nc([C@@H]3c4nc[nH]c4CCN3c3cnccn3)cc12 [Example 2319, (S)-4-(4-(difluoromethoxy)pyrazolo[1,5-a]pyridin-2-yl)-5-(pyrazin-2-yl)-4,5,6,7-tetrahydro-1H-imidazo[4,5-c]pyridine]	< 0.5

From patent publication US12673961B2 (Agios Pharmaceuticals, Inc., priority 2022, dated 2026)
